Here are results for 3 molecules from patent publication US20160303147A1 (priority 2007, published 2016).

Where two headings read alike, the source gives them in different places.

The term Cmax denotes the peak of the concentration-time curve.

The conditions of data set [1]: intravenous infusion, patients; cited from earlier work.
The nature of data set [2]: Clinical pharmacokinetics in healthy volunteers, single dose of CMX001. The data set is classed as in vivo. The conditions noted are these: Human, analyte = label. As to the method: (§1) An initial study was conducted to evaluate the safety and pharmacokinetics of
(§2) CMX001 in healthy volunteers. The study consisted of a single dose arm (SD) and a multiple dose arm (MD). In the single dose arm 7 cohorts of 6 subjects were treated (4 subjects received active drug and 2 placebo). Enrollment was staggered as 2 subjects (one active, one placebo) followed by 4 subjects (Groups A and B). The estimated single doses for the two highest doses treated for a […] subject were 40 mg (0.6 mg/kg cohort 6) and 70 mg (1 mg/kg cohort 7). In the multiple dose arm, cohort 6MD received 0.1 mg/kg on Day 0, 6 and 12; Cohort 7MD received 0.2 mg/kg on Day 0, 6 and 12. Levels of cidofovir, CMX001 and CMX064 (major metabolite) were measured in blood and urine of subjects during the course of the study. Gastrointestinal (GI) monitoring of the subjects included (a) monitoring for clinical signs of GI adverse events, (b) monitoring for clinical symptoms using a visual Analog Scale, (c) monitoring for appetite loss/anorexia, nausea, vomiting, diarrhea, constipation and intestinal gas/bloating, (d) laboratory tests for fecal occult blood; serum electrolytes, urine specific gravity, BUN/creatinine ratio; serum albumin, and lipids, and (e) diagnostic studies (the Wireless capsule endoscopy (PillCam®, Given Imaging)).
Table 3 illustrates the PK comparison of CMX 001 with CMX 021 and CMX 064 for mouse, rabbit and human.

A short description of data set [3]: Clinical safety study in healthy volunteers, single dose cohort 6. The data set is classed as in vivo, human. The following applies: cohort 6, 600 μg/kg single dose, still blinded. As to the method: as §1, §2
Plasma concentration curves of CMX001 following a single dose administration are shown in FIG. 1, and plasma concentration curves of cidofovir following a single dose of CMX001 are shown in FIG. 2.

The test system of data set [4] is lethal Orthopoxivirus infections. The data set is classed as in vivo. The following applies: mice and rabbits.

Consider `Nc1ccn(C[C@@H](CO)OCP(=O)(O)O)c(=O)n1` [Cidofovir], for which the nephrotoxicity result in data set [1] is given as “dose-limited by its nephrotoxicity”.

As to `Nc1ccn(C[C@@H](CO)OCP(=O)(O)OCCCOCCCC(=O)O)c(=O)n1` [CMX064], the AUCO→ came to 38.95 ng·h/mL in data set [2] (CMX001 dose 0.050 mg/kg); 34.02 ng·h/mL in data set [2] (CMX001 dose 0.100 mg/kg); 39.73 ng·h/mL in data set [2] (CMX001 dose 0.200 mg/kg); 202.99 ng·h/mL in data set [2] (CMX001 dose 0.400 mg/kg); 187.0 ng·h/mL in data set [2] (CMX001 dose 0.600 mg/kg). Besides, the Cmax in data set [2] (CMX001 dose 0.050 mg/kg) amounted to 4.63 ng/mL; in data set [2] (CMX001 dose 0.100 mg/kg), 2.85 ng/mL; in data set [2] (CMX001 dose 0.200 mg/kg), 4.55 ng/mL; in data set [2] (CMX001 dose 0.400 mg/kg), 23.03 ng/mL; in data set [2] (CMX001 dose 0.600 mg/kg) it was 24.86 ng/mL.

As to `CCCCCCCCCCCCCCCCOCCCOP(=O)(O)CO[C@H](CO)Cn1ccc(N)nc1=O` [CMX001], in data set [3], the adverse events result is recorded as “No serious adverse events (SAEs), no significant adverse events (AEs) (i.e. ≧Grade 2), no AEs directly attributable to drug”; the “changes to clinical laboratory values” is reported as “No drug associated clinically significant changes to clinical laboratory values, including those indicative of kidney dysfunction”; the “gastrointestinal capsule endoscopy findings” value is “No post-dose clinically significant gastrointestinal capsule endoscopy findings attributable to drug”. Also, the effective dose in data set [4] (daily for 5 days, low titer inoculums) is 1 to 2 mg/kg. In data set [4] (late stage, single dose), this molecule had an effective dose of 20 to 30 mg/kg. The “protection against lethal Orthopoxivirus infections” value in data set [4] is on record as “essentially completely protective”.
